Data reported in ChEMBL document CHEMBL1201862, “PubChem BioAssay data set” (2004).
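These data come from cells grown in 96-well plates and exposed to compound for 48 hours at five concentrations. The concentration for 50% growth inhibition is given as GI50.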 Calls of active or inactive are those of the source. No stated cut-off is given here; in the data, active = GI50 up to about 1.1 µM and inactive = higher.

Experiments:
Experiment in all cases: NCI-60 cell line screen, 48 h
[1] = tested on: TK-10
[2] = tested on: MDA-MB-435
[3] = tested on: IGROV-1
[4] = tested on: MDA-MB-231
[5] = tested on: UO-31
[6] = tested on: K562
[7] = tested on: SW-620
[8] = tested on: T47D
[9] = tested on: UACC-62
[10] = tested on: SK-MEL-2
[11] = tested on: OVCAR-3
[12] = tested on: LOX IMVI
[13] = tested on: MCF7
[14] = tested on: SR
[15] = tested on: SF-268
[16] = tested on: NCI-H522
[17] = tested on: ACHN
[18] = tested on: SF-295
[19] = tested on: CCRF-CEM
[20] = tested on: HCC 2998

SMILES	GI50 [1]	GI50 [2]	GI50 [3]	GI50 [4]	GI50 [5]	GI50 [6]	GI50 [7]	GI50 [8]	GI50 [9]	GI50 [10]	GI50 [11]	GI50 [12]	GI50 [13]	GI50 [14]	GI50 [15]	GI50 [16]	GI50 [17]	GI50 [18]	GI50 [19]	GI50 [20]
CN(C)Cc1ccc(O)c(CN(C)C)n1	> 100 µM (inactive)	> 100 µM (inactive)	> 100 µM (inactive)	> 100 µM (inactive)	> 100 µM (inactive)	> 100 µM (inactive)	> 100 µM (inactive)	> 100 µM (inactive)	> 100 µM (inactive)	> 100 µM (inactive)	> 100 µM (inactive)	> 100 µM (inactive)	> 100 µM (inactive)	> 100 µM (inactive)	> 100 µM (inactive)	> 100 µM (inactive)	> 100 µM (inactive)	> 100 µM (inactive)		
NC(=O)N/N=C/c1ccccc1O	> 100 µM (inactive)	> 100 µM (inactive)	> 100 µM (inactive)	> 100 µM (inactive)	> 100 µM (inactive)	> 100 µM (inactive)	> 100 µM (inactive)	> 100 µM (inactive)	> 100 µM (inactive)	> 100 µM (inactive)		> 100 µM (inactive)	> 100 µM (inactive)	> 100 µM (inactive)	> 100 µM (inactive)		> 100 µM (inactive)	> 100 µM (inactive)	> 100 µM (inactive)	> 100 µM (inactive)
O=C(OCC1OC2OC(c3ccccc3)(n3ccc4c([N+](=O)[O-])ccnc43)OC2C1OC(=O)c1ccccc1)c1ccccc1 (centres undefined)	> 100 µM (inactive)	> 100 µM (inactive)	> 100 µM (inactive)	> 100 µM (inactive)	> 100 µM (inactive)	> 100 µM (inactive)	> 100 µM (inactive)	35 µM (inactive)	> 100 µM (inactive)	> 100 µM (inactive)	> 100 µM (inactive)	> 100 µM (inactive)	> 100 µM (inactive)	> 100 µM (inactive)			> 100 µM (inactive)	> 100 µM (inactive)	> 100 µM (inactive)	> 100 µM (inactive)
CC(=O)NC1CONC1=O (centres undefined)	> 100 µM (inactive)	> 100 µM (inactive)	> 100 µM (inactive)	> 100 µM (inactive)	> 100 µM (inactive)	> 100 µM (inactive)	> 100 µM (inactive)	> 100 µM (inactive)	> 100 µM (inactive)	> 100 µM (inactive)	> 100 µM (inactive)	> 100 µM (inactive)	> 100 µM (inactive)	> 100 µM (inactive)	> 100 µM (inactive)	> 100 µM (inactive)	> 100 µM (inactive)	> 100 µM (inactive)	> 100 µM (inactive)	
CCC1([N+](=O)[O-])CN(N=O)C1	> 100 µM (inactive)	> 100 µM (inactive)	> 100 µM (inactive)	> 100 µM (inactive)	> 100 µM (inactive)	> 100 µM (inactive)	> 100 µM (inactive)	> 100 µM (inactive)	> 100 µM (inactive)	> 100 µM (inactive)	> 100 µM (inactive)	> 100 µM (inactive)	> 100 µM (inactive)	> 100 µM (inactive)	> 100 µM (inactive)	> 100 µM (inactive)	> 100 µM (inactive)	> 100 µM (inactive)	> 100 µM (inactive)	
COc1cc2c(cc1OCCCCN1CCN(CCCCOc3cc4c(cc3OC)C(=O)N3CCC[C@H]3C=N4)CC1)N=C[C@@H]1CCCN1C2=O	0.0589 µM (active)	0.0508 µM (active)	0.146 µM (active)	0.0378 µM (active)	0.0798 µM (active)	0.0199 µM (active)	< 0.0119 µM (active)	< 0.0118 µM (active)	< 0.0105 µM (active)	0.0389 µM (active)	0.0372 µM (active)		< 0.0318 µM (active)	1 µM (active)	< 0.0289 µM (active)	< 0.01 µM (active)	0.0448 µM (active)	< 0.0352 µM (active)		
